{"source": "patent US7045532B2", "about": "(Millennium Pharmaceuticals, Inc., priority 1999, dated 2006)", "key": {"ACE (Sigma, A2580)": {"molecular_target": "T1, ACE (Sigma, A2580) (Sus scrofa, UniProt F1RRW5)", "T1 construct": "ACE from porcine kidney; purchased Sigma A2580; host or cells: porcine kidney", "T1 sequence (F1RRW5 34-1309)": "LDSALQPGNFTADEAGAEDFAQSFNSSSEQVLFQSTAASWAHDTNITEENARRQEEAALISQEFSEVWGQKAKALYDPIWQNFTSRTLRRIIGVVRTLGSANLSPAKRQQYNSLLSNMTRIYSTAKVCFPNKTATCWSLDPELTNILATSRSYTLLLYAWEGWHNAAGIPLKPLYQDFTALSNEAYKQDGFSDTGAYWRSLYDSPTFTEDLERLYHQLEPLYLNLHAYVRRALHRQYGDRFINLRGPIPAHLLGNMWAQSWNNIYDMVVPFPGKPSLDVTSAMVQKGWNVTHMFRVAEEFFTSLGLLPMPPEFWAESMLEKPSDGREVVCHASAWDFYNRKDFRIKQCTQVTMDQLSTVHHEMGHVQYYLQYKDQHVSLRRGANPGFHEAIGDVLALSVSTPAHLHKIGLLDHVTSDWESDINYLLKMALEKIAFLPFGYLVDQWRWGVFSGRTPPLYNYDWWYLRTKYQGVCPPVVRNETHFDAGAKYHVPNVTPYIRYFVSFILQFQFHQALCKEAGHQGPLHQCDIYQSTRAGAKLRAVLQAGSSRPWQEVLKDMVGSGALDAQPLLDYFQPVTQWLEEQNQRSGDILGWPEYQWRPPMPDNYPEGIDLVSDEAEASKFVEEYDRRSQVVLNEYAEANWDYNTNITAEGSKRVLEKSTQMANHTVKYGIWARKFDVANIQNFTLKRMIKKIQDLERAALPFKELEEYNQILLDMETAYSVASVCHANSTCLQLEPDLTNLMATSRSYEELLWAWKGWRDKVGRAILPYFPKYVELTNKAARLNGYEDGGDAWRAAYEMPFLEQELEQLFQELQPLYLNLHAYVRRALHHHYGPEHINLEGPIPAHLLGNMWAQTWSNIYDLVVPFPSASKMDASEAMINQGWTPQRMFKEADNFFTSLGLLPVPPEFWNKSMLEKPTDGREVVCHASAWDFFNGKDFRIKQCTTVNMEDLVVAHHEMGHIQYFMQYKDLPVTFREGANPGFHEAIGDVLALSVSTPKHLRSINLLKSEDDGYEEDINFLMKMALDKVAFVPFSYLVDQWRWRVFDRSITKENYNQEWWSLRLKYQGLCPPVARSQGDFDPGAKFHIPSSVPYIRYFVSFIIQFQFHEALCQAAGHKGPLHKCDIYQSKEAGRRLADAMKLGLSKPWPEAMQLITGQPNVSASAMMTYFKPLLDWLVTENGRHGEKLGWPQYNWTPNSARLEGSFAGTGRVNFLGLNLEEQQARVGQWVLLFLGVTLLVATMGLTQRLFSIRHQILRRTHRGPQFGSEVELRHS", "assay": "ACE enzymatic activity assay", "assay_type": "biochemical, porcine", "details": "Ki class; compounds tested in 5% DMSO, 12 compound concentrations", "outline": "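Fluorogenic substrate cleavage by 1 nM ACE, read at 320/405 nm after EDTA stop at ~30 min. Reactions at 25 °C, pH 7.5, in HEPES/NaCl/Brij-35 buffer; compounds tested at 12 concentrations in 5% DMSO.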"}, "[1]": {"assay": "Effect on appetite: food consumption in ICR mice", "details": "100 mg/kg oral"}}, "note": "pKi: −log10 of the molar value.", "data": [{"smiles": "CC(C)CC(N[C@@H](Cc1cncn1Cc1cc(Cl)cc(Cl)c1)C(=O)O)C(=O)O", "note": "(single isomer, unassigned) [HE, 2-[1-Carboxy-2-[3-(3,5-dichloro-benzyl)-3H-imidazol-4-yl]-ethylamino)4-methyl-pentanoic acid]", "values": [{"measurement": "pKi", "setting": "ACE (Sigma, A2580)", "value": "4.30 to 5.00"}, {"measurement": "reduction of food intake compared to vehicle", "setting": "[1]; 1 hr after administration", "value": "about 40%"}, {"measurement": "reduction of food intake compared to vehicle", "setting": "[1]; 3 hr after administration", "value": "about 18%"}]}]}
